Measurements published in article PMC3939009, “Thrombin inhibitory activity of some polyphenolic compounds” (Medicinal Chemistry Research, 2013).
Like-named read-outs stand apart in the source and are kept apart here. Each block holds one compound with its values, some of them ahead of it.

Tests used:
human thrombin [1] = target: T1, human thrombin (Homo sapiens, UniProt P00734); assay: Amidolytic activity of thrombin (hydrolysis of chromogenic substrate D-Phe-Pip-Arg-pNA); format: biochemical; design: Thrombin, also known as an active plasma coagulation factor II; purchased Sigma-Aldrich Chemical Co. (St. Louis, MO, USA) T7009; host or cells: purified from human plasma
Protocol: (§1) All tested compounds were dissolved in 50 % DMSO to the initial concentration of 10 mM; other solutions of compounds were also prepared in 50 % DMSO (prepared in 50 mM TBS, pH 7.4). The final concentration of DMSO in thrombin samples was 5 %. To prepare thrombin control samples, the same volume of solvent (50 % DMSO prepared in 50 mM TBS, pH 7.4) was added as in the case of the compound volume and warmed for 10 min to 37 °C.
To each reaction well, 40 μl of 3 mM chromogenic substrate was added. To initiate the chromogenic reaction, 280 μl of control thrombin (without tested compounds) or thrombin after preincubation with a polyphenolic compound to every reaction well in the same moment was added. The absorbance value was monitored every 12 s for 10 min. The maximal velocity of the reaction (V max, Δm OD/min) for each absorbance curve was determined. IC50 value (parameter) for every polyphenolic compound from inhibition curves was estimated.

human thrombin [2] = target: T1, human thrombin; assay: SDS-PAGE analysis of thrombin-induced cross-linked fibrin formation; format: biochemical; design: Thrombin, also known as an active plasma coagulation factor II; purchased Sigma-Aldrich Chemical Co. (St. Louis, MO, USA) T7009; host or cells: purified from human plasma
Protocol: as §1, with “In these preparations, to nine volumes of thrombin one volume of polyphenolic compounds was added (final thrombin concentration was 15.8 nM). All” for “All”
The reactions incubated at 37 °C were stopped after 5, 15 and 30 min by adding 150 μl of lysis buffer (0.125 M Tris/HCl, 4 % SDS, 8 M urea, 10 % β-mercaptoethanol, pH 6.8). Samples were subjected to SDS-PAGE (polyacrylamide concentration—7.5 %) using Mini-Protean Electrophoresis Cell (Bio-Rad, Hercules, CA). Proteins were stained with Coomassie Brilliant Blue R250 (CBB).

human thrombin [3] = target: T1, human thrombin; assay: Thrombin-induced fibrinogen polymerization; format: biochemical; design: Thrombin, also known as an active plasma coagulation factor II; purchased Sigma-Aldrich Chemical Co. (St. Louis, MO, USA) T7009; details: thrombin preincubated with compound; for Effect on thrombin ability to induce fibrinogen polymerization: 10 min 37 °C
Protocol: In these preparations, to nine volumes of thrombin one volume of polyphenolic compounds was added (final thrombin concentration was 15.8 nM). All tested compounds were dissolved in 50 % DMSO to the initial concentration of 10 mM; other solutions of compounds were also prepared in 50 % DMSO (prepared in 50 mM TBS, pH 7.4). […] Polymerization of fibrin was monitored at 595 nm using a 96-well microtiter plate reader. To each reaction well of the microtiter plate, 100 μl of fibrinogen (3 mg/ml) in 50 mM TBS and 5 mM CaCl2, pH 7.4, were added. […] The maximal velocity of the polymerization process (V max, Δm OD/min) for each absorbance curve was determined (Nowak et al., [2007]).

human thrombin [4] = target: T1, human thrombin; assay: BIAcore (SPR) analysis of binding to immobilized thrombin; design: Thrombin, also known as an active plasma coagulation factor II; purchased Sigma-Aldrich Chemical Co. (St. Louis, MO, USA) T7009; details: for Response (RU): analyte 1,000 μM, thrombin immobilized on CM5 chip
Protocol: The biosensor assays were performed using the BIAcore 1000 biosensor system. All biosensor analyses were performed with a phosphate-buffered saline (PBS), pH 7.4, as a running buffer. […] The immobilization of thrombin on a biosensor carboxylmethyl dextran surface was performed according to the BIA applications Handbook (BIAcore, [1994]). The process of protein immobilization was performed on a sensor chip CM5 surface by the positively charged functional groups of protein amino acids. The immobilization process consisted of four steps: preconcentration, activation, ligand immobilization and deactivation of the residual NHS esters. […] The temperature during the whole experiment was also constant and was set to 25.0 °C. […] Each of these solutions (10 μl) was injected into an empty sensor chip channel. […] The amount of injected activation mixture was modified, to regulate the amount of immobilized ligand. […] The conditions of the latter experiments were established by numerous pre-tests. The assessed parameters included: the buffer flow rate, the volume of analyte injection, the concentration of analytes, types and concentration of regenerators. […] For each injection of analyte solution, the volume used was 100 μl. After injection of analyte was completed, the dissociation step occurred and the level of the interaction ligand-analyte was measured. During dissociation, the particles non-covalently bound to the ligand were washed out from the working channel. […] To do these calculations, the formulas presented below were used: the association rate […]]; the dissociation rate -d[AB]/dt=kd·[AB]; the equilibrium constants: KA=[AB]/[A]·[B]=ka/kd KD=[A]·[B]/[AB]=kd/ka.

human thrombin [5] = assay: Thrombin-induced platelet aggregation (turbidimetric); format: cell-based
Protocol: Blood samples in 0.32 % sodium citrate from healthy volunteers without cardiovascular disorders were collected, untreated with antiplatelet drugs. […] Platelets were isolated from PRP using BSA–Sepharose 2B gel filtration method according to Walkowiak et al. ([2000]). […] In these preparations, to nine volumes of thrombin one volume of polyphenolic compounds was added (final thrombin concentration was 15.8 nM). All tested compounds were dissolved in 50 % DMSO to the initial concentration of 10 mM; other solutions of compounds were also prepared in 50 % DMSO (prepared in 50 mM TBS, pH 7.4). […] The platelet aggregation was measured by turbidimetric method (Saluk-Juszczak et al., [2007]) using dual-channel Chrono-log optical aggregometer (Chronolog, USA). […] Platelet suspensions were pre-warmed at 37 °C with stirring.

human thrombin [6] = target: T1, human thrombin; assay: Analysis of thrombin inhibition parameters (Lineweaver–Burk curves); format: biochemical; design: Thrombin, also known as an active plasma coagulation factor II; purchased Sigma-Aldrich Chemical Co. (St. Louis, MO, USA) T7009; details: for k cat: compound at IC50 concentration, k cat = V max/E 0, control 29.1; for Type of inhibition: from Lineweaver–Burk curves; for V max of chromogenic substrate hydrolysis by thrombin / K m of chromogenic substrate hydrolysis by thrombin: thrombin incubated with compound at IC50 concentration; for V max of chromogenic substrate hydrolysis by thrombin: control 30.7; for K m of chromogenic substrate hydrolysis by thrombin: control 158.7
Protocol: Absorbance was monitored every 12 s for 10 min in a 96-well microplate reader. The velocity of reaction was expressed as the increase in product (pNA) over time (∆ μmol/min) using a computer program Mikcroplate Manager® 8 and the extinction coefficient of p-nitroaniline. […] Then, the Lineweaver–Burk ([1934]) curves for thrombin in the presence and in the absence of polyphenol compounds were plotted. The Lineweaver–Burk equation, which is a transformation of the Michaelis–Menten model, looks as follows: 1/V=Km/Vmax·1/[S]+1/Vmax

[7] = at 375 μM substrate concentration, compounds 0.1–1,000 μM, preincubation 10 min 37 °C, read-out: IC50, amidolytic activity of human thrombin

IC50 (human thrombin [1]; [7]): > 1000 µM
Compound: O=C(O)/C=C/c1ccc(O)c(O)c1 [Caffeic acid, caffeic acid]

IC50 (human thrombin [1]; [7]): > 1000 µM
Compound: Oc1ccc(/C=C/c2cc(O)cc(O)c2)cc1 [Resveratrol, resveratrol]

IC50 (human thrombin [1]; [7]): > 1000 µM
Compound: O=C(O)Cc1ccc(O)cc1 [4-Hydroxyphenylacetic acid, 4-hydroxyphenylacetic acid]

Changes in electrophoresis of fibrinogen treated with preincubated thrombin (human thrombin [2]; cyanin 75 and 750 μM, (+)-catechin 125 and 1,000 μM, (−)-epicatechin 150 and 1,000 μM): no changes were observed
K A, equilibrium association constant (human thrombin [4]; 5 sensorgrams, 50 to 1,000 μM): 20300 M⁻¹
Kd (human thrombin [4]; 5 sensorgrams, 50 to 1,000 μM, read-out: K D, equilibrium dissociation constant): 49.2 µM
kon (human thrombin [4]; 5 sensorgrams, 50 to 1,000 μM, read-out: k a, association rate): 3.62 M⁻¹ s⁻¹
koff (human thrombin [4]; 5 sensorgrams, 50 to 1,000 μM, read-out: k d, dissociation rate): 0.000178 s⁻¹
Response (RU) (human thrombin [4]): 717 RU
k cat (human thrombin [6]): 29.5 s⁻¹
Type of inhibition (human thrombin [6]): competitive inhibitors
V max of chromogenic substrate hydrolysis by thrombin (human thrombin [6]): 31.2 10^−6 mol/min
K m of chromogenic substrate hydrolysis by thrombin (human thrombin [6]): 700.1 10^−6 M
IC50 (human thrombin [1]; [7]): 125 µM
Compound: Oc1cc(O)c2c(c1)O[C@H](c1ccc(O)c(O)c1)[C@@H](O)C2 [(+)-Catechin, (+)-catechin]
Effect on thrombin ability to induce fibrinogen polymerization (human thrombin [3]): inhibitory effect of polymerization of human fibrinogen was not observed
Effect on thrombin ability to stimulate platelet aggregation (human thrombin [5]; compound preincubated with thrombin): no effect on thrombin ability to stimulate platelets aggregation

IC50 (human thrombin [1]; [7]): > 1000 µM
Compound: COc1ccc([C@@H]2CC(=O)c3c(O)cc(O)cc3O2)cc1O [Hesperetin, hesperetin]

Compound: O=c1c(-c2ccc(O)cc2)coc2cc(O)cc(O)c12 [Genistein, genistein]
IC50 (human thrombin [1]): > 1000 µM

IC50 (human thrombin [1]; [7]): > 1000 µM
Compound: O=C1C[C@@H](c2ccc(O)cc2)Oc2cc(O)cc(O)c21 [Naringenin, naringenin]

IC50 (human thrombin [1]; [7]): > 1000 µM
Compound: COc1cc(/C=C/C(=O)O)ccc1O [Ferulic acid, ferulic acid]

Compound: C[C@@H]1O[C@@H](OC[C@H]2O[C@@H](Oc3c(-c4ccc(O)c(O)c4)oc4cc(O)cc(O)c4c3=O)[C@H](O)[C@@H](O)[C@@H]2O)[C@H](O)[C@H](O)[C@H]1O [Rutin, rutin]
IC50 (human thrombin [1]; [7]): > 1000 µM

IC50 (human thrombin [1]; [7]): > 1000 µM
Compound: O=C(/C=C/c1ccc(O)c(O)c1)O[C@@H]1C[C@](O)(C(=O)O)C[C@@H](O)[C@H]1O [Chlorogenic acid, chlorogenic acid]

IC50 (human thrombin [1]; [7]): > 1000 µM
Compound: COc1ccc([C@@H]2CC(=O)c3c(O)cc(O[C@@H]4O[C@H](CO[C@@H]5O[C@@H](C)[C@H](O)[C@@H](O)[C@H]5O)[C@@H](O)[C@H](O)[C@H]4O)cc3O2)cc1O [Hesperidin, hesperidin]

Compound: O=C(O)c1cc(O)c(O)c(O)c1 [Gallic acid, gallic acid]
IC50 (human thrombin [1]): > 1000 µM

Compound: Oc1cc(O)c2cc(O)c(-c3ccc(O)c(O)c3)[o+]c2c1 [Cyanidin, cyanidin]
Effect on formation of γ–γ chains and α-polymers (human thrombin [2]; at IC50 concentration of amidolytic inhibition: cyanidin […], quercetin 1.5 μM): also inhibited the formation of γ–γ chains and α-polymers
Effect on formation of γ–γ chains and α-polymers (human thrombin [2]; ten times IC50: cyanidin […], quercetin 15 μM, silybin 250 μM): significantly inhibited the formation of γ–γ chains and α-polymers
Effect on thrombin ability to induce fibrinogen polymerization (human thrombin [3]): inhibition of thrombin ability to induce fibrinogen polymerization
Concentration causing total inhibition of thrombin activity (fibrin polymerization) (human thrombin [3]; Vmax of fibrinogen polymerization at 595 nm): 5 µM
Response (RU) (human thrombin [4]): 2,251 RU
Platelet aggregation, % of control (human thrombin [5]; compound 5 μM preincubated with thrombin): 10%
k cat (human thrombin [6]): 28.7 s⁻¹
Type of inhibition (human thrombin [6]): competitive inhibitors
V max of chromogenic substrate hydrolysis by thrombin (human thrombin [6]): 30.3 10^−6 mol/min
K m of chromogenic substrate hydrolysis by thrombin (human thrombin [6]): 600.6 10^−6 M

IC50 (human thrombin [1]; [7]): > 1000 µM
Compound: Oc1cc(O)c2c(c1)O[C@H](c1ccc(O)c(O)c1)[C@H](O)[C@H]2c1c(O)cc(O)c2c1O[C@H](c1ccc(O)c(O)c1)[C@H](O)C2 [Procyanidin B2, procyanidin B2]

IC50 (human thrombin [1]; [7]): > 1000 µM
Compound: C[C@@H]1O[C@@H](O[C@H]2[C@H](Oc3cc(O)c4c(c3)O[C@H](c3ccc(O)cc3)CC4=O)O[C@H](CO)[C@@H](O)[C@@H]2O)[C@H](O)[C@H](O)[C@H]1O [Naringin, naringin]

IC50 (human thrombin [1]; [7]): > 1000 µM
Compound: O=C(O)/C=C/c1ccc(O)cc1 [Coumaric acid, coumaric acid]
